Assay [1] deals with T1, rSmTAChE (Schistosoma mansoni, UniProt A0A3Q0KMM5). Description: biochemical.
Assay [2] addresses T1, rSmTAChE. The format is biochemical. Particulars: for IC50: read-out: qAC50 (IC50), rSmTAChE.
The target in assay [3] is recombinant human acetylcholinesterase, rHsAChE (Homo sapiens, UniProt P22303). The assay can be described thus: biochemical. Particulars: for IC50: read-out: qAC50 (IC50), rHsAChE; for inhibition of rHsAChE, result in words: dose–response, up to 40 µM.

Structures can show the parent of a compound that is named as a salt.

One may read the IC50 as the concentration that gives 50% inhibition. By inhibition is commonly meant the share of the control response that was lost under treatment.
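Wherever Inhibition (%) (Average) is given: mostly 20 µM final but a few compounds at 5 or 10 µM.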
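Wherever Inhibition (%) Replicate A is given: mostly 20 µM final but a few compounds at 5 or 10 µM.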
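Wherever Inhibition (%) Replicate B is given: mostly 20 µM final but a few compounds at 5 or 10 µM.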

recombinant human acetylcholinesterase, rHsAChE, sequence (P22303 32-614): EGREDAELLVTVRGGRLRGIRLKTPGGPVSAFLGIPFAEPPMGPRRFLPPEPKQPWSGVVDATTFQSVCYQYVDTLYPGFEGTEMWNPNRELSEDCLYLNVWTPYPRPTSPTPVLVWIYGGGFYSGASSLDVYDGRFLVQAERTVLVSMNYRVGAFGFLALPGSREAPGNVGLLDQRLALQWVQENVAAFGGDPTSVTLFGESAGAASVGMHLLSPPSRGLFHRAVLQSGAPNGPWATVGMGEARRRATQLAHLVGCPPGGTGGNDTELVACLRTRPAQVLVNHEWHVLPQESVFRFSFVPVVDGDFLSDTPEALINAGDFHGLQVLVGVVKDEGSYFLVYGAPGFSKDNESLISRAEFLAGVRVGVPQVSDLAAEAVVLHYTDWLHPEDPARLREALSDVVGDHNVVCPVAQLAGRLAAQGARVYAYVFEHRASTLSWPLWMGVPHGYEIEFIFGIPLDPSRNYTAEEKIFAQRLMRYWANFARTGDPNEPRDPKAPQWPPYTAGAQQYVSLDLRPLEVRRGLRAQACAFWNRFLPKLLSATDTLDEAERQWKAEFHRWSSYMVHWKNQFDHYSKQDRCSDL
T1 sequence (A0A3Q0KMM5 27-661 limits assumed): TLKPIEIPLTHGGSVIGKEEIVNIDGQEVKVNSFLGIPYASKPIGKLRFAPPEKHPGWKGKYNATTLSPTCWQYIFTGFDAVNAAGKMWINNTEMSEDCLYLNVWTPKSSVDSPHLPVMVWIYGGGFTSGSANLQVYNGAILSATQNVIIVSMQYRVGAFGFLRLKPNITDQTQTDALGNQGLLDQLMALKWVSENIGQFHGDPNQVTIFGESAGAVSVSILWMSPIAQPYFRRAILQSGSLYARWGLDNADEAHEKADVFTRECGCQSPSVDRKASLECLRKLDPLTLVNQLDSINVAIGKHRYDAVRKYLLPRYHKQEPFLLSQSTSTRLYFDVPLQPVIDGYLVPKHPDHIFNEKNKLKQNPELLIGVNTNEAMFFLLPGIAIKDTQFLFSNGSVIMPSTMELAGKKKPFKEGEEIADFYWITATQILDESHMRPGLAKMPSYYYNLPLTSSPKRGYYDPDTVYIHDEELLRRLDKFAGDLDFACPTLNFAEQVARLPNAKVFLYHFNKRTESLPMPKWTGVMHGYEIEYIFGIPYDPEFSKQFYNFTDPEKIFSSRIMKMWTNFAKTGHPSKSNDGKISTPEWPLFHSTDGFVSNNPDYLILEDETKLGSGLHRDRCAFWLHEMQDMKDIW

`Cc1nc2sccn2c(=O)c1CCN1CCC(=C(c2ccc(F)cc2)c2ccc(F)cc2)CC1` [BRD-K40887525-001-23-5]: in assay [1], the “Inhibition (%) (Average)” value is reported as 80.73%, the “Inhibition (%) Replicate A” value was found to be 82.03% and the “Inhibition (%) Replicate B” value worked out at 79.42%. In assay [2], the “Data Mode (curve class), rSmTAChE” value is “decreasing (weakly active)” and the IC50 is greater than 19.5 µM. In assay [3], the “Data Mode (curve class), rHsAChE” value is reported as “decreasing” and the IC50 is 10.9 µM.
Turning to `CCCC(=O)Nc1ccc2c(c1)OC[C@@H](C)N(Cc1cc(-c3ccccc3)on1)C[C@@H](C)[C@H](OC)CN(C)C2=O` [BRD-K35965314-001-01-7], in assay [1], the “Inhibition (%) (Average)” value was 67.01%, the “Inhibition (%) Replicate A” value is recorded as 68.51% and the “Inhibition (%) Replicate B” value came out at 65.51%. For the same compound, the “rSmTAChE Data Mode” value in assay [2] was “inactive”. Also, in assay [3], the “rHsAChE Data Mode” value was “inactive”.
`COc1cccc(C#Cc2ccc([C@@H]3[C@@H](C#N)N(C(=O)c4ccccn4)[C@@H]3CO)cc2)c1` [BRD-K66084396-004-02-2]: in assay [1], the “Inhibition (%) (Average)” value came to 72.85%, the “Inhibition (%) Replicate A” value came out at 73.10% and the “Inhibition (%) Replicate B” value was 72.60%. For the same compound, the “rSmTAChE Data Mode” value in assay [2] was “inactive”. Moreover, the “rHsAChE Data Mode” value in assay [3] is “inactive”.
`CCOc1nc2cccc(C(=O)OCc3oc(=O)oc3C)c2n1Cc1ccc(-c2ccccc2-c2noc(=O)[nH]2)cc1` [BRD-K25723200-001-03-5]: in assay [1], the “Inhibition (%) (Average)” value worked out at 67.00%, the “Inhibition (%) Replicate A” value is given as 73.36% and the “Inhibition (%) Replicate B” value came to 60.64%. In assay [2], the “Data Mode (curve class), rSmTAChE” value is “decreasing” and the IC50 turned out to be 11.6 µM. In assay [3], the “Data Mode (curve class), rHsAChE” value was “decreasing (weakly active)” and the IC50 is greater than 12 µM.
On to `C[C@H](Oc1cc(-c2cnn(C3CCNCC3)c2)cnc1N)c1c(Cl)ccc(F)c1Cl` [BRD-K40308497-001-01-2], for which, in assay [1], the “Inhibition (%) (Average)” value was determined as 86.27%, the “Inhibition (%) Replicate A” value stood at 85.50% and the “Inhibition (%) Replicate B” value was 87.03%.
As for `O=C1[C@@H]2[C@H]3CC[C@H](C3)[C@@H]2C(=O)N1C[C@@H]1CCCC[C@H]1CN1CCN(c2nsc3ccccc23)CC1` [BRD-K51143828-003-03-1], in assay [1], the “Inhibition (%) (Average)” value worked out at 77.24%, the “Inhibition (%) Replicate A” value was 79.39% and the “Inhibition (%) Replicate B” value is reported as 75.09%. Also, in assay [2], the “Data Mode (curve class), rSmTAChE” value is given as “decreasing (weakly active)” and the IC50 was greater than 38 µM. In addition, the “Data Mode (curve class), rHsAChE” value in assay [3] was “inactive”.
Regarding `COc1ccc(C(Cl)=C(c2ccc(OC)cc2)c2ccc(OC)cc2)cc1` [BRD-K27062708-001-23-1], in assay [1], the “Inhibition (%) (Average)” value was 64.11%, the “Inhibition (%) Replicate A” value stood at 62.61% and the “Inhibition (%) Replicate B” value is recorded as 65.61%. For the same compound, in assay [2], the “Data Mode (curve class), rSmTAChE” value was “inactive”. Besides, in assay [3], the “Data Mode (curve class), rHsAChE” value is given as “decreasing (weakly active)” and the IC50 is greater than 38 µM.
As to `CNC(=O)Oc1ccc2c(c1)[C@]1(C)CCN(C)[C@@H]1N2C` [Physostigmine sulfate, reference compound], the “Data Mode (curve class), rSmTAChE” value in assay [2] was “decreasing”. Moreover, the “Data Mode (curve class), rHsAChE” value in assay [3] is given as “decreasing”.
On to `CC1(C)CCC(C)(C)c2cc(C#Cc3ccc(C(=O)O)cc3)ccc21` [BRD-K81004638-001-01-7], for which, in assay [2], the “Data Mode (curve class), rSmTAChE” value is “decreasing” and the IC50 turned out to be 19.8 µM. Besides, in assay [3], the “Data Mode (curve class), rHsAChE” value is “decreasing” and the IC50 amounted to 14.5 µM.
Take `CC1(C)CCC(C)(C)c2cc(C#Cc3ccc(C(=O)O)cc3)ccc21` [BRD-K81004638-001-02-5]: in assay [1], the “Inhibition (%) (Average)” value was 66.58%, the “Inhibition (%) Replicate A” value is given as 64.60% and the “Inhibition (%) Replicate B” value was 68.56%.
On to `CC(C)(O)c1ccccc1CC[C@@H](SCC1(CC(=O)O)CC1)c1cccc(/C=C/c2ccc3ccc(Cl)cc3n2)c1` [BRD-K69470111-001-01-2], for which, in assay [2], the “Data Mode (curve class), rSmTAChE” value is “decreasing (weakly active)” and the IC50 is greater than 38 µM. Moreover, in assay [3], the “Data Mode (curve class), rHsAChE” value is “increasing (weakly active)” and the half-inhibitory concentration (IC50) is greater than 38 µM.
With `C[C@]12CC[C@@H]3c4ccc(O)cc4C[C@@H](CCCCCCCCC[S+]([O-])CCCC(F)(F)C(F)(F)F)[C@H]3[C@@H]1CC[C@@H]2O` (stereo partly drawn) [BRD-A85667082-001-10-1], in assay [1], the “Inhibition (%) (Average)” value was determined as 87.19%, the “Inhibition (%) Replicate A” value was 87.84% and the “Inhibition (%) Replicate B” value came to 86.54%.
Consider `CC(C)Oc1ccc(-c2cnc3c(-c4ccnc5ccccc45)cnn3c2)cc1` [BRD-K39381259-001-01-0], for which, in assay [2], the “Data Mode (curve class), rSmTAChE” value was “inactive”. Moreover, in assay [3], the “Data Mode (curve class), rHsAChE” value was “decreasing (weakly active)” and the IC50 was greater than 13.5 µM.
Take `CNC(=O)Oc1ccc2c(c1)[C@]1(C)CCN(C)[C@@H]1N2C` [Physostigmine salicylate, reference compound]: the “Data Mode (curve class), rSmTAChE” value in assay [2] is given as “decreasing”. For the same compound, the “Data Mode (curve class), rHsAChE” value in assay [3] is reported as “decreasing”.
For the compound `CCCCCCCCc1ccc(CCC(N)(CO)CO)cc1` [BRD-K88025533-003-04-1], in assay [2], the “Data Mode (curve class), rSmTAChE” value was “inactive”. The “Data Mode (curve class), rHsAChE” value in assay [3] was “inactive”.
As to `CCCCCCCCc1ccc(CCC(N)(CO)CO)cc1` [BRD-K88025533-003-03-3], in assay [1], the “Inhibition (%) (Average)” value came to 70.74%, the “Inhibition (%) Replicate A” value was 73.25% and the “Inhibition (%) Replicate B” value is reported as 68.23%.
Regarding `C[C@]12CC[C@@H]3c4ccc(O)cc4C[C@@H](CCCCCCCCC[S+]([O-])CCCC(F)(F)C(F)(F)F)[C@H]3[C@@H]1CC[C@@H]2O` (stereo partly drawn) [BRD-A85667082-001-12-7], in assay [2], the “Data Mode (curve class), rSmTAChE” value was “decreasing (weakly active)” and the IC50 is greater than 38 µM. In addition, the “Data Mode (curve class), rHsAChE” value in assay [3] is “inactive”.
As to `C/C=C1\[C@H]2C=C(C)C[C@]1(N)c1ccc(=O)[nH]c1C2` [Huperzine A, reference compound], the inhibition at 20 µM in assay [1] (read-out: rSmTAChE HTS Inhibition (Ave, %)) came out at 64.1%. Also, the “Data Mode (curve class), rSmTAChE” value in assay [2] was “decreasing”.
Take `CC(C)(O)c1ccccc1CC[C@@H](SCC1(CC(=O)O)CC1)c1cccc(/C=C/c2ccc3ccc(Cl)cc3n2)c1` [BRD-K69470111-236-09-7]: in assay [1], the “Inhibition (%) (Average)” value turned out to be 81.70%, the “Inhibition (%) Replicate A” value is listed as 81.35% and the “Inhibition (%) Replicate B” value was 82.06%.
In the case of `CC(C)Oc1ccc(-c2cnc3c(-c4ccnc5ccccc45)cnn3c2)cc1` [BRD-K39381259-001-02-8], in assay [1], the “Inhibition (%) (Average)” value is 67.85%, the “Inhibition (%) Replicate A” value came out at 64.38% and the “Inhibition (%) Replicate B” value is 71.32%.
Take `C[C@H](Oc1cc(-c2cnn(C3CCNCC3)c2)cnc1N)c1c(Cl)ccc(F)c1Cl` [BRD-K40308497-001-02-0]: in assay [2], the “Data Mode (curve class), rSmTAChE” value is given as “decreasing” and the IC50 amounted to 26.8 µM. Further, in assay [3], the “Data Mode (curve class), rHsAChE” value is on record as “decreasing” and the IC50 worked out at 21.2 µM.
With `Nc1ccc(O)c(C(=O)O)c1` [Mesalazine, reference compound], the “Data Mode (curve class), rSmTAChE” value in assay [2] is on record as “decreasing”. In assay [3], the “IC50 (µM) rHsAChE” value is reported as “Inactive” and the “inhibition of rHsAChE, result in words” value is “no detectable inhibitory effect”. Besides, in assay [3] (listed as #19), the “inhibition of rHsAChE, result in words” value is “no inhibition detected”.

(Values after paper PMC12154458, “High-Throughput Screens of Repurposing Hub and DOS Chemical Libraries Reveal Compounds with Novel and Potent Inhibitory Activity Against the Essential Non-Neuronal Acetylcholinesterase of Schistosoma mansoni (SmTAChE)” (International Journal of Molecular Sciences, 2025).)
